Consider 24 compounds from patent US20090304692A1, “TRIAZINE COMPOUNDS AS PI3 KINASE AND MTOR INHIBITORS” (Wyeth, priority 2008, published 2009).

Each structure is given as a SMILES string. Values joined by “and” are separate entries in the source; they are usually repeats but may differ in a detail not shown here. Identical values can stand only once. Like-named read-outs stand apart in the source and are kept apart here.

For one assay, the target named is PI3K-α (Homo sapiens, UniProt P42336). The assay is described as follows: PI3K-alpha fluorescence polarization assay. The settings on record: read-out: IC50 PI3Kα. A general note: In fluorescence polarisation assays a small probe gives low polarisation when free and higher when bound to something large.
The target of another assay is PI3K-γ (Homo sapiens, UniProt P48736). Description: PI3K-gamma fluorescence polarization assay. The note with it: read-out: IC50 PI3Kγ.
In another assay the target is Human mTOR (FLAG-TOR) (Homo sapiens, UniProt P42345). The assay is described as follows: mTOR kinase assay (DELFIA format, purified enzyme). Format: biochemical. The settings on record: read-out: IC50 mTOR.
Chain of Human mTOR (FLAG-TOR) (P42345 1360-2549 limits assumed): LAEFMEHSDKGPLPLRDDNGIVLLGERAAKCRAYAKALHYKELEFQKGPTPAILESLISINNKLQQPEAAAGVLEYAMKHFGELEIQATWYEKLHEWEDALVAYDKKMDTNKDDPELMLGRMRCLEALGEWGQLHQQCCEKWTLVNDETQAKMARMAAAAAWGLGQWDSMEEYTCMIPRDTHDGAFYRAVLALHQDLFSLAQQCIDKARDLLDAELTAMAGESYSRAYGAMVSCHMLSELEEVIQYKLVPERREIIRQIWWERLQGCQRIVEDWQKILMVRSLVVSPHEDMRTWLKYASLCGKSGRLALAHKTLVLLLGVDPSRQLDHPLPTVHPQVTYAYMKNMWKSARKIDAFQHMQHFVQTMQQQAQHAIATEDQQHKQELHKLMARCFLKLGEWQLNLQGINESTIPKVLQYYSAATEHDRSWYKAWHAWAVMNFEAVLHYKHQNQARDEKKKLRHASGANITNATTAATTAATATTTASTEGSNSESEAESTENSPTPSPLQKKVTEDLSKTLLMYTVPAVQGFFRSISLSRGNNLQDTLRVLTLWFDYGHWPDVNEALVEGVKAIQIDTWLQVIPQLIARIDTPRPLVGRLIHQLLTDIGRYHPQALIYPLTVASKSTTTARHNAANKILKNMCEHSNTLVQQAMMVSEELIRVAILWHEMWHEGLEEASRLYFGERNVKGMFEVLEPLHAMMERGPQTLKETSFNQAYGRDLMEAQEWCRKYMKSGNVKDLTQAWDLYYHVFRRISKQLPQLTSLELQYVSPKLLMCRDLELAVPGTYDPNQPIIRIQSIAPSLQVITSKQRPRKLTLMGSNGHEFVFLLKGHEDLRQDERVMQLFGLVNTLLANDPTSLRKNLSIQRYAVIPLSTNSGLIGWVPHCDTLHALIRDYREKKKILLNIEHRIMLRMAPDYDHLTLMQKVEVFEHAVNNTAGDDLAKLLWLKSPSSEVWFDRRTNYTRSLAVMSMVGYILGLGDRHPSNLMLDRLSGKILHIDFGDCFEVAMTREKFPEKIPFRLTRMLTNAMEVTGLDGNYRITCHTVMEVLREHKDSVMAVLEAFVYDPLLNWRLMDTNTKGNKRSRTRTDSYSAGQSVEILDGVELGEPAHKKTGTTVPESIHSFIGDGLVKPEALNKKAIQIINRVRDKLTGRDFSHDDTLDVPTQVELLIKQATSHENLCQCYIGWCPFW

Chain of PI3K-γ (P48736 whole entry, species assumed): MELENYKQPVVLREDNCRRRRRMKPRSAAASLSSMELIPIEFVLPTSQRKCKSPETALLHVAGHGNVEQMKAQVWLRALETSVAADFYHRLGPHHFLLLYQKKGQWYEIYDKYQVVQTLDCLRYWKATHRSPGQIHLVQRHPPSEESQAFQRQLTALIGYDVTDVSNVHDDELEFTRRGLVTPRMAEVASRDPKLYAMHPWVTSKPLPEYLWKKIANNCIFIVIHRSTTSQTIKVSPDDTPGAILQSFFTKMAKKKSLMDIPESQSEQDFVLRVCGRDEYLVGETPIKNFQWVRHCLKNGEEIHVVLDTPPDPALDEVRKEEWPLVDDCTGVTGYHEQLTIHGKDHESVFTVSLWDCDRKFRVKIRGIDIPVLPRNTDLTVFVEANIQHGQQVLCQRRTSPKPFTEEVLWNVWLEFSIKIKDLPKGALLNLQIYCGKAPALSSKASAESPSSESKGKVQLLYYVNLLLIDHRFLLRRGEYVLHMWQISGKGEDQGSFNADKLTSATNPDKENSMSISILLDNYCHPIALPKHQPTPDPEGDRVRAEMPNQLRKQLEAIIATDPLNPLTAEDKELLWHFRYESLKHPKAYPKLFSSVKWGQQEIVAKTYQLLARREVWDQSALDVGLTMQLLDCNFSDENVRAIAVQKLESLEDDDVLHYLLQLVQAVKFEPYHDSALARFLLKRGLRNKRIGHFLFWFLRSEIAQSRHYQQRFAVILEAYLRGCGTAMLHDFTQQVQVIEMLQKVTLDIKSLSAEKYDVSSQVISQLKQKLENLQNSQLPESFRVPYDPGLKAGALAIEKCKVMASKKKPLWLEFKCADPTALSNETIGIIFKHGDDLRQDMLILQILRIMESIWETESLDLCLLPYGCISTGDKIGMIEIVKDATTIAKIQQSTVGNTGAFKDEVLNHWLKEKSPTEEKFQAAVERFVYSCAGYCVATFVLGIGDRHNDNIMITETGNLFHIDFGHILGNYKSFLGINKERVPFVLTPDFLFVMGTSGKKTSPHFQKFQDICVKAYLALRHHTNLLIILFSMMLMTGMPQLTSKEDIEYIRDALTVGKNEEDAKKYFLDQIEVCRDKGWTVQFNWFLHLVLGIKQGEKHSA
Chain of PI3K-α (P42336 whole entry, species assumed): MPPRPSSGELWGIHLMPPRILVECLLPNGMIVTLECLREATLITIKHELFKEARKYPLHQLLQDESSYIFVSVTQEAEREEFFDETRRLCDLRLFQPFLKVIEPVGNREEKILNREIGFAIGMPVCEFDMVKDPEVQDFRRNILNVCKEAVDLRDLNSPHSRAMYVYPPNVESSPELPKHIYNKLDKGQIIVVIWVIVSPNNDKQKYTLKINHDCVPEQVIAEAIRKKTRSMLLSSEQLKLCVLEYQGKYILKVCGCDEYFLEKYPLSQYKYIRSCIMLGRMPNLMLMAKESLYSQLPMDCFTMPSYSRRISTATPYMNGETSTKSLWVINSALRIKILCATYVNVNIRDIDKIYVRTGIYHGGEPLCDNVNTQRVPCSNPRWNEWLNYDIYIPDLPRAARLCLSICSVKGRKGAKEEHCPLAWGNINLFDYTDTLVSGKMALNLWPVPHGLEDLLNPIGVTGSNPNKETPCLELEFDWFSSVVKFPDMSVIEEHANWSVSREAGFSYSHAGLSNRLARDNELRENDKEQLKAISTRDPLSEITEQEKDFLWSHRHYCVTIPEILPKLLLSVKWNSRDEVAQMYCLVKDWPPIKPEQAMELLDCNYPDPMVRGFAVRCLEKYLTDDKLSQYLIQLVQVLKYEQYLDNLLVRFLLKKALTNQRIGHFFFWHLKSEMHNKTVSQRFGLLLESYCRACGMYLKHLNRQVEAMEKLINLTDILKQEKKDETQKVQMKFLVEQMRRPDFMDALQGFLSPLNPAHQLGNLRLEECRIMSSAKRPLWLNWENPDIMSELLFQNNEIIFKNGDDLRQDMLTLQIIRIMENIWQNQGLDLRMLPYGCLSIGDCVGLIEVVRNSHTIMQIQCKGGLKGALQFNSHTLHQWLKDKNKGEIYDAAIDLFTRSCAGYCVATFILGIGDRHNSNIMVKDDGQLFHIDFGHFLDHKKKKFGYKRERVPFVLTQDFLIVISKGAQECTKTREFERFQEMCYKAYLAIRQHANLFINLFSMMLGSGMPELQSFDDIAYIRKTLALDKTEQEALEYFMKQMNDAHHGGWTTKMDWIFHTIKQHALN
Chain of PI3K-α (P27986 whole entry partner, species assumed): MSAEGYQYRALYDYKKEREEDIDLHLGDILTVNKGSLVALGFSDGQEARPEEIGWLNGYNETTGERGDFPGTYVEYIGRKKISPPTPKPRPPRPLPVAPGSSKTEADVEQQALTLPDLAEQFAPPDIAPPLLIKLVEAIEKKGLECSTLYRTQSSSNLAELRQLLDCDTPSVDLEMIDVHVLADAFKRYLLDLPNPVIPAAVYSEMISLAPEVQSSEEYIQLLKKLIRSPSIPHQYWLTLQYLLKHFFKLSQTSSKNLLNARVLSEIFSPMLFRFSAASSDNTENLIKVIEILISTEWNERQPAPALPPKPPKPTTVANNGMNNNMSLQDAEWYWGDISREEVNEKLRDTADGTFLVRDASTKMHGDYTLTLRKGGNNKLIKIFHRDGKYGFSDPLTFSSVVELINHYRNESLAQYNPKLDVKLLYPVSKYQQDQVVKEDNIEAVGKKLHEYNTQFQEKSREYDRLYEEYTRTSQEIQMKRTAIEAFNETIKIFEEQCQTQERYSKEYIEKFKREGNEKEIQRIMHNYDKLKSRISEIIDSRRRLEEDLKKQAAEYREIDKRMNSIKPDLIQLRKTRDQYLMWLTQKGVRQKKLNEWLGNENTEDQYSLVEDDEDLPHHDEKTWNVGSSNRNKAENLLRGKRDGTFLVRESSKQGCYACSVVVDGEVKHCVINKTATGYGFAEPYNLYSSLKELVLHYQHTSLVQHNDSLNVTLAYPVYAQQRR

As for `CCCCc1nc(-c2ccc(NC(=O)Nc3ccc(CN4CCN(C)CC4)cc3)cc2)nc(N2CCOCC2)n1` [Example 254, 1-[4-(4-butyl-6-morpholin-4-yl-1,3,5-triazin-2-yl)phenyl]-3-{4-[(4-methylpiperazin-1-yl)methyl]phenyl}urea], the IC50 (as a rule, the point on the concentration scale where inhibition reaches its midpoint) amounted to 63 nM on PI3K-α, 253 nM on PI3K-γ and 17 nM at Human mTOR (FLAG-TOR).
For `CC(C)(C)OC(=O)N1CC2CN(c3nc(-c4ccc(NC(=O)Nc5ccncc5)cc4)nc(N4CCOCC4)n3)CC(C1)O2` [Example 281, tert-butyl-7-(4-morpholin-4-yl-6-{4-[(pyridin-4-ylcarbamoyl)amino]phenyl}-1,3,5-triazin-2-yl)-9-oxa-3,7-diazabicyclo[3.3.1]nonane-3-carboxylate], in that order: 2190 nM, 4980 nM and 2800 nM.
As for `O=C(Nc1ccncc1)Nc1ccc(-c2nc(N3CCOCC3)nc(N3CC4CNCC(C3)O4)n2)cc1` [Example 290, 1-{4-[4-morpholin-4-yl-6-(9-oxa-3,7-diazabicyclo[3.3.1]non-3-yl)-1,3,5-triazin-2-yl]phenyl}-3-pyridin-4-ylurea], the half-maximal inhibitory concentration (IC50) at PI3K-α is 97 nM; at PI3K-γ, 166 nM; on Human mTOR (FLAG-TOR), 150 nM and 145 nM.
Consider `CN1CC2CN(c3nc(-c4ccc(NC(=O)Nc5ccncc5)cc4)nc(N4CCOCC4)n3)CC(C1)O2` [Example 291, 1-{4-[4-(7-methyl-9-oxa-3,7-diazabicyclo[3.3.1]non-3-yl)-6-morpholin-4-yl-1,3,5-triazin-2-yl]phenyl}-3-pyridin-4-ylurea], for which the IC50 at PI3K-α is 368 nM; on PI3K-γ, 711 nM; at Human mTOR (FLAG-TOR), 190 nM.
In the case of `CC(=O)N1CC2CN(c3nc(-c4ccc(NC(=O)Nc5ccncc5)cc4)nc(N4CCOCC4)n3)CC(C1)O2` [Example 292, 1-{4-[4-(7-acetyl-9-oxa-3,7-diazabicyclo[3.3.1]non-3-yl)-6-morpholin-4-yl-1,3,5-triazin-2-yl]phenyl}-3-pyridin-4-ylurea], the half-inhibitory concentration (IC50) on PI3K-α is 1500 nM; on PI3K-γ, 3690 nM; at Human mTOR (FLAG-TOR) it was 70 nM and 68 nM.
In the case of `CS(=O)(=O)N1CC2CN(c3nc(-c4ccc(NC(=O)Nc5ccncc5)cc4)nc(N4CCOCC4)n3)CC(C1)O2` [Example 293, 1-(4-{4-[7-(methylsulfonyl)-9-oxa-3,7-diazabicyclo[3.3.1]non-3-yl]-6-morpholin-4-yl-1,3,5-triazin-2-yl}phenyl)-3-pyridin-4-yl urea], the half-maximal inhibitory concentration (IC50) was 764 nM on PI3K-α; 533 nM at PI3K-γ; 500 nM and 470 nM at Human mTOR (FLAG-TOR).
Regarding `Cc1ccc(-c2nc(-c3ccc(NC(=O)Nc4ccc(N5CCC(N(C)C)CC5)cc4)cc3)nc(N3CCOCC3)n2)cc1` [Example 339, 1-{4-[4-(dimethylamino)piperidin-1-yl]phenyl}-3-{4-[4-(4-methylphenyl)-6-morpholin-4-yl-1,3,5-triazin-2-yl]phenyl}urea], the IC50 was 71 nM at PI3K-α; 71.5 nM on PI3K-α (listed as 531); 485 nM on PI3K-γ; 484 nM at PI3K-γ (listed as 531); 90 nM and 80 nM on Human mTOR (FLAG-TOR).
As to `Cc1ccc(-c2nc(-c3ccc(NC(=O)Nc4ccncc4)cc3)nc(N3CCOCC3)n2)cc1` [Example 340, 1-{4-[4-(4-methylphenyl)-6-morpholin-4-yl-1,3,5-triazin-2-yl]phenyl}-3-pyridin-4-ylurea], the half-inhibitory concentration (IC50) at PI3K-α is 92 nM; at PI3K-γ it was 706 nM; at PI3K-γ (listed as 530) it was 706 nM; at Human mTOR (FLAG-TOR) it was 46 nM and 49.5 nM.
Turning to `Cc1ccc(-c2nc(-c3ccc(NC(=O)Nc4ccc(N5CCN(C)CC5)cc4)cc3)nc(N3CCOCC3)n2)cc1` [Example 343, 1-{4-[4-(4-methylphenyl)-6-morpholin-4-yl-1,3,5-triazin-2-yl]phenyl}-3-[4-(4-methylpiperazin-1-yl)phenyl]urea], the IC50 was 97 nM on PI3K-α; 96.5 nM at PI3K-α (listed as 526); 6700 nM on PI3K-γ; 6700 nM on PI3K-γ (listed as 526); 40 nM and 47.5 nM at Human mTOR (FLAG-TOR).
On to `COC(=O)c1ccc(NC(=O)Nc2ccc(-c3nc(-c4ccc(C)cc4)nc(N4CCOCC4)n3)cc2)cc1` [Example 344, methyl 4-[({4-[4-(4-methylphenyl)-6-morpholin-4-yl-1,3,5-triazin-2-yl]phenyl}carbamoyl)amino]benzoate], for which the IC50 on PI3K-α is 1610 nM; at PI3K-α (listed as 528), 1610 nM; at PI3K-γ, 4140 nM; on Human mTOR (FLAG-TOR) it was 1500 nM and 1600 nM.
In the case of `C[C@@H]1COCCN1c1nc(-c2ccc(NC(=O)Nc3ccncc3)cc2)nc(N2CCOC[C@H]2C)n1` [Example 397, 1-(4-(4,6-bis((R)-3-methylmorpholino)-1,3,5-triazin-2-yl)phenyl)-3-(pyridin-4-yl)urea], the results for the IC50 on PI3K-α, on PI3K-γ and at Human mTOR (FLAG-TOR) were 173 nM, 2070 nM and 0.16 nM, respectively.
On to `C[C@@H]1COCCN1c1nc(-c2ccc(NC(=O)Nc3cccnc3)cc2)nc(C2CCOCC2)n1` [Example 420, (R)-1-(4-(4-(3-methylmorpholino)-6-(tetrahydro-2H-pyran-4-yl)-1,3,5-triazin-2-yl)phenyl)-3-(pyridin-3-yl)urea], for which the IC50 at PI3K-α is 593 nM; at PI3K-γ, 4360 nM; at Human mTOR (FLAG-TOR) it was 0.63 nM.
As for `C[C@@H]1COCCN1c1nc(-c2ccc(NC(=O)Nc3ccc(N4CCC(N(C)C)CC4)cc3)cc2)nc(N2CCOC[C@H]2C)n1` [Example 449, 1-(4-(4,6-bis((R)-3-methylmorpholino)-1,3,5-triazin-2-yl)phenyl)-3-(4-(4-(dimethylamino)piperidin-1-yl)phenyl)urea], the half-inhibitory concentration (IC50) is 287 nM at PI3K-α, 1640 nM at PI3K-γ and 1.9 nM at Human mTOR (FLAG-TOR).
In the case of `O=C(Nc1ccncc1)Nc1ccc(-c2nc(N3CCOCC3)nc(N3C4COCC(O)C3C4)n2)cc1` (stereo not drawn) [Example 480, 1-{4-[4-(5-hydroxy-3-oxa-7-azabicyclo[4.1.1]oct-7-yl)-6-morpholin-4-yl-1,3,5-triazin-2-yl]phenyl}-3-pyridin-4-ylurea], the 50% inhibitory concentration (IC50) on PI3K-α came to 13 nM; at PI3K-γ, 53 nM; at Human mTOR (FLAG-TOR), 2.9 nM.
Take `O=C(Nc1ccc(-c2nc(N3CCOCC3)nc(N3CCOCC3)n2)cc1)Nc1ccnnc1` [Example 481, 1-[4-(4,6-dimorpholin-4-yl-1,3,5-triazin-2-yl)phenyl]-3-pyridazin-4-ylurea]: the IC50 on PI3K-α was found to be 11 nM; at PI3K-γ, 65 nM; on Human mTOR (FLAG-TOR) it was 2.3 nM.
On to `O=C(Nc1ccc(-c2nc(N3CCOCC3)nc(N3C4CCC3COC4)n2)cc1)Nc1ccnnc1` [Example 483, 1-{4-[4-morpholin-4-yl-6-(3-oxa-8-azabicyclo[3.2.1]oct-8-yl)-1,3,5-triazin-2-yl]phenyl}-3-pyridazin-4-ylurea], for which the figures for the IC50 at PI3K-α, at PI3K-γ and on Human mTOR (FLAG-TOR) were 28.5 nM, 150 nM and 1.55 nM, respectively.
Turning to `COC(CNc1nc(-c2ccc(NC(=O)Nc3cccnc3)cc2)nc(N2CCOCC2)n1)OC` [Example 488, 1-(4-{4-[(2,2-dimethoxyethyl)amino]-6-morpholin-4-yl-1,3,5-triazin-2-yl}phenyl)-3-pyridin-3-ylurea], the figures for the IC50 at PI3K-α, at PI3K-γ and at Human mTOR (FLAG-TOR) were 42 nM, 180 nM and 3.4 nM, respectively.
For `CC(C)c1nc(-c2ccc(NC(=O)Nc3ccc(I)cc3)cc2)nc(N2CCOCC2)n1` [Example 490, 1-(4-iodophenyl)-3-{4-[4-(1-methylethyl)-6-morpholin-4-yl-1,3,5-triazin-2-yl]phenyl}urea], in that order: 586 nM, 1080 nM and 11.6 nM.
For `CC(C)c1nc(-c2ccc(NC(=O)Nc3ccc(-c4cnc(N(C)C)nc4)cc3)cc2)nc(N2CCOCC2)n1` [Example 493, 1-{4-[2-(dimethylamino)pyrimidin-5-yl]phenyl}-3-{4-[4-(1-methylethyl)-6-morpholin-4-yl-1,3,5-triazin-2-yl]phenyl}urea], in that order: 2920 nM, 1080 nM and 32.5 nM.
Regarding `COC(=O)c1ccc(NC(=O)Nc2ccc(-c3nc(-c4ccccc4)nc(N4CCOCC4)n3)cc2)cc1` [Example 538, methyl 4-({[4-(4-morpholin-4-yl-6-phenyl-1,3,5-triazin-2-yl)phenyl]carbamoyl}amino)benzoate], the IC50 stood at 333 nM at PI3K-α, 197 nM at PI3K-γ and 0.125 nM on Human mTOR (FLAG-TOR).
For `C[C@H]1COCCN1c1nc(-c2ccc(NC(=O)Nc3ccc(C(=O)O)cc3)cc2)nc(N2CCOC[C@@H]2C)n1` [Example 549, 4-{[(4-{4,6-bis[(3S)-3-methylmorpholin-4-yl]-1,3,5-triazin-2-yl}phenyl)carbamoyl]amino}benzoic acid], in that order: 724 nM, 4540 nM and 26.5 nM.
As for `Cc1ccc(-c2nc(-c3ccc(NC(=O)Nc4ccc(C(=O)N5CCCCC5)cc4)cc3)nc(N3CCOCC3)n2)cc1` [Example 555, 1-{4-[4-(4-methylphenyl)-6-morpholin-4-yl-1,3,5-triazin-2-yl]phenyl}-3-[4-(piperidin-1-ylcarbonyl)phenyl]urea], the 50% inhibitory concentration (IC50) at PI3K-α amounted to 87.5 nM; at PI3K-γ it was 378 nM; at Human mTOR (FLAG-TOR) it was 405 nM.
As for `COC(=O)c1ccc(NC(=O)Nc2ccc(-c3nc(-c4cccs4)nc(N4CCOCC4)n3)cc2)cc1` [Example 560, methyl 4-[({4-[4-morpholin-4-yl-6-(2-thienyl)-1,3,5-triazin-2-yl]phenyl}carbamoyl)amino]benzoate], the IC50 is 269 nM at PI3K-α, 504 nM at PI3K-γ and 100 nM on Human mTOR (FLAG-TOR).
Take `O=C(Nc1ccc(C(=O)O)cc1)Nc1ccc(-c2nc(N3CCCOCC3)nc(N3CCOCC3)n2)cc1` [Example 569, 4-[({4-[4-morpholin-4-yl-6-(1,4-oxazepan-4-yl)-1,3,5-triazin-2-yl]phenyl}carbamoyl)amino]benzoic acid]: the IC50 was found to be 74.5 nM on PI3K-α, 375 nM at PI3K-γ and 8 nM on Human mTOR (FLAG-TOR).
